Assay [1] concerns Rattus norvegicus. Put plainly: In vivo Sterol lowering activity at dose as 0.03 % of the diet. It is filed as functional.
The subject of assay [2] is Rattus norvegicus. As to the kind of experiment: In vivo Triglyceride lowering activity at dose as 0.01 % of the diet. The format is functional.
Assay [3] concerns Rattus norvegicus. As to the kind of experiment: In vivo Sterol lowering activity at dose as 0.01 % of the diet. The format is functional.
Assay [4] concerns Rattus norvegicus. As to the kind of experiment: In vivo Triglyceride lowering activity at dose as 0.03 % of the diet. It is filed as functional.
In assay [5] the test system is Rattus norvegicus. Put plainly: In vivo Sterol lowering activity at dose as 0.10 % of the diet. The format is functional.
Assay [6] concerns Rattus norvegicus. As to the kind of experiment: In vivo Triglyceride lowering activity at a dose of 0.10 % of the diet. The format is functional.
In assay [7] the target is T1, Sterol O-acyltransferase 1 (Rattus norvegicus) (UniProt O70536).
T1 sequence (whole entry): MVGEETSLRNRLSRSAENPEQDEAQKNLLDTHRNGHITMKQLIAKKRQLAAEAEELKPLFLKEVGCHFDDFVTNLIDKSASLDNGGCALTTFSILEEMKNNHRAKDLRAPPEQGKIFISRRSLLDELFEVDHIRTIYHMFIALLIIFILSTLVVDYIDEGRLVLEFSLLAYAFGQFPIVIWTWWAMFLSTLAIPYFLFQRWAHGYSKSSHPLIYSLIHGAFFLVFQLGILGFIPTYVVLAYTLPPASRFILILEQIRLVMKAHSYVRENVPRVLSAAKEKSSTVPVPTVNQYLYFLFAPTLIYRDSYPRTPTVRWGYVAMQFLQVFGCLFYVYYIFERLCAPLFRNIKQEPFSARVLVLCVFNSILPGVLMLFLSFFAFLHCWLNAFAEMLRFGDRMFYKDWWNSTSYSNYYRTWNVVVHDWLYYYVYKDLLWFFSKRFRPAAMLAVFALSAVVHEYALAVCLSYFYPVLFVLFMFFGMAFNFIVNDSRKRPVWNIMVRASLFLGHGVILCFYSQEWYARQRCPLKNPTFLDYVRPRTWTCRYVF
As to the kind of experiment: In vitro inhibitory activity against acyl coenzyme A:cholesterol acyltransferase. Also noted: concentration or dose not given beside the values. The note with it: concentration not given here.

Assay [8] deals with Rattus norvegicus. Put plainly: In vivo Triglyceride lowering activity at dose as 0.10 % of the diet. The format is functional.
Assay [9] has as its system Rattus norvegicus. Put plainly: In vivo sterol lowering activity, dosed as 0.03 % of the diet. The format is functional.
Assay [10] concerns Rattus norvegicus. Put plainly: In vivo Triglyceride lowering activity at dose as 0.01 % of the diet. The format is functional.
For assay [11], the system named is Rattus norvegicus. Put plainly: In vivo Triglyceride lowering activity at dose as 0.03 % of the diet. The format is functional.
Assay [12] relates to Rattus norvegicus. As to the kind of experiment: In vivo sterol lowering activity at dose of 0.10 % of the diet. The format is functional.

The record followed here is ChEMBL document CHEMBL1122462, “Potential antiatherosclerotic agents. 4. [(Functionalized-alkyl)amino]benzoic acid analogues of cetaben” (1983).

Several values for one entry are separate records, joined by “and”; a condition that tells them apart may be missing. Equal values may be shown once.

On to `O=C(O)c1ccc(NCCC2CCCC2)cc1`, for which the Diet worked out at 94% with Rattus norvegicus [1]; 78% in the assay on Rattus norvegicus [2]; 92% in the assay with Rattus norvegicus [3]; 83% in the assay with Rattus norvegicus [4]; 88% in the assay with Rattus norvegicus [5]. Moreover, the “serum triglyceride level (% of control)” value in the assay on Rattus norvegicus [6] is 64%.
By inhibition is commonly meant the drop in the measured response relative to a control, in per cent. Turning to `CCOC(=O)CCCCCNc1ccc(C(=O)OCC)cc1`, the Diet is 92% with Rattus norvegicus [1]; 68% in the assay on Rattus norvegicus [2]; 96% in the assay with Rattus norvegicus [3]; 72% with Rattus norvegicus [4]; 84% with Rattus norvegicus [5]; 71% in the assay on Rattus norvegicus [8]. This compound displayed an inhibition in assay [7] of 18%.
As to `CCOC(=O)c1ccc(NC(=O)CCC(=O)OC)cc1`, the Diet worked out at 99% with Rattus norvegicus [1]; 99% with Rattus norvegicus [2]; 86% with Rattus norvegicus [3]; 92% with Rattus norvegicus [4]; 97% in the assay with Rattus norvegicus [5]; 114% in the assay with Rattus norvegicus [8]. Also, the inhibition in [7] is 2%.
For `CCCC(Nc1ccc(C(=O)OCC)cc1)C(=O)OCC` (configuration not stated), the Diet with Rattus norvegicus [1] came to 109%; with Rattus norvegicus [2], 93%; in the assay with Rattus norvegicus [3] it was 103%; in the assay with Rattus norvegicus [4] it was 96%; with Rattus norvegicus [5], 102%; in the assay with Rattus norvegicus [8], 77%. This compound also came in with an inhibition in assay [7] of 44%.
As for `CCOC(=O)c1ccc(NCCCC#N)cc1`, the Diet was 118% in the assay on Rattus norvegicus [1]; 131% in the assay on Rattus norvegicus [2]; 116% in the assay with Rattus norvegicus [3]; 113% with Rattus norvegicus [4]; 109% with Rattus norvegicus [5]; 97% in the assay with Rattus norvegicus [8]. The inhibition in [7] was found to be 26%.
As for `CCOC(=O)CN(CC(=O)OCC)c1ccc(C(=O)OCC)cc1`, the Diet with Rattus norvegicus [1] came out at 98%; in the assay with Rattus norvegicus [2], 77%; in the assay on Rattus norvegicus [3], 93%; in the assay on Rattus norvegicus [4], 120%; with Rattus norvegicus [5] it was 100%; with Rattus norvegicus [8], 122%. In assay [7], this compound yielded an inhibition of 32%.
On to `CCCC(Nc1ccc(C(=O)O)cc1)C(=O)O` (configuration not stated), for which the Diet in the assay with Rattus norvegicus [2] amounted to 93%; with Rattus norvegicus [3], 95%; in the assay with Rattus norvegicus [4], 74%. Besides, the “serum sterol level, percent of control” value in the assay with Rattus norvegicus [9] turned out to be 87%. In [7], the inhibition was 0%.
As to `O=C(O)CCCCCNc1ccc(C(=O)O)cc1`, the Diet is 100% in the assay with Rattus norvegicus [1]; 85% with Rattus norvegicus [2]; 92% in the assay with Rattus norvegicus [3]; 91% in the assay with Rattus norvegicus [4]; 105% in the assay with Rattus norvegicus [5]; 102% in the assay with Rattus norvegicus [8]. Further, the inhibition in assay [7] turned out to be 4%.
In the case of `O=C(O)CCNc1ccc(C(=O)O)cc1`, the Diet with Rattus norvegicus [1] is recorded as 118%; in the assay on Rattus norvegicus [2], 97%; in the assay on Rattus norvegicus [3], 101%; with Rattus norvegicus [4] it was 108%; with Rattus norvegicus [5] it was 100%. Also, the inhibition in [7] is 6% and 0%. Moreover, the “serum triglyceride level (% of control)” value in the assay on Rattus norvegicus [6] was 72%.
Turning to `O=C(O)c1ccc(NCC2CCCCC2)cc1`, in the assay with Rattus norvegicus [9], the “serum sterol level, percent of control” value was 84%. Besides, the Diet in the assay on Rattus norvegicus [3] is reported as 95%. In addition, the “serum triglyceride level (% of control)” value in the assay on Rattus norvegicus [10] amounted to 73%; in the assay with Rattus norvegicus [6], 62%. For the same compound, the triglyceride lowering activity with Rattus norvegicus [11] came out at 71%. The inhibition in [7] was found to be 1%. In addition, the “serum sterol level, % of control” value with Rattus norvegicus [12] was 83%.
`CCOC(=O)CNc1ccc(C(=O)OCC)cc1`: the Diet came to 100% in the assay on Rattus norvegicus [1]; 109% with Rattus norvegicus [2]; 90% in the assay on Rattus norvegicus [3]; 114% with Rattus norvegicus [4]; 100% in the assay on Rattus norvegicus [5]; 121% with Rattus norvegicus [8]. In [7], the inhibition was 24%.
Consider `CCOC(=O)c1ccc(NC(C)C(=O)OCC)cc1` (configuration not stated), for which the Diet in the assay with Rattus norvegicus [1] stood at 93%; in the assay on Rattus norvegicus [2] it was 123%; with Rattus norvegicus [3], 107%; in the assay on Rattus norvegicus [4], 110%; in the assay on Rattus norvegicus [5], 107%; with Rattus norvegicus [8], 82%. The compound further displayed an inhibition in assay [7] of 23%.
Turning to `O=C(O)CN(CC(=O)O)c1ccc(C(=O)O)cc1`, the Diet with Rattus norvegicus [1] was 89%; in the assay on Rattus norvegicus [2] it was 92%; in the assay with Rattus norvegicus [3], 95%; in the assay on Rattus norvegicus [4], 84%; in the assay on Rattus norvegicus [5], 91%; in the assay with Rattus norvegicus [8], 100%. The same compound gave an inhibition in assay [7] of 14%.
Take `CCOC(=O)CCNc1ccc(C(=O)OCC)cc1`: the Diet in the assay on Rattus norvegicus [1] was 100%; in the assay with Rattus norvegicus [2], 109%; in the assay with Rattus norvegicus [3], 97%; in the assay with Rattus norvegicus [4] it was 98%; with Rattus norvegicus [5], 94%; with Rattus norvegicus [8], 103%. This compound also returned an inhibition in assay [7] of 28%.
On to `O=C(O)CNc1ccc(C(=O)O)cc1`, for which the Diet stood at 87% in the assay with Rattus norvegicus [1]; 90% in the assay on Rattus norvegicus [2]; 89% in the assay with Rattus norvegicus [3]; 93% in the assay with Rattus norvegicus [4]; 98% with Rattus norvegicus [5]; 106% in the assay with Rattus norvegicus [8]. In assay [7], this compound returned an inhibition of 18%.
